Laboratory results as given in ChEMBL document CHEMBL1201862, “PubChem BioAssay data set” (2004).
Values belong to the compound of their own block, whether it stands above or below them. The source made the active and inactive calls.

Experiments:
[1] = off-target signal loss in HeLa-CEM21 co-culture – HeLa F-luc CTL cells, cherry-picked, counter-screen for HIV-1 Env fusion inhibitor project, dose response (AID 652040); assay type: functional, cell-based;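 note: potency for signal decrease marking cytotoxic or nonspecific inhibition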
[2] = ZM109 Env clade C HIV-1 fusion inhibitors, dose response, HeLa effector, CEM target cells, luciferase, cherry-pick (AID 652058); assay type: functional, cell-based
[3] = inhibitors of intracellular T. cruzi replication, confirmation, NIH3T3 host cells, beta-gal luminescence (AID 2044); assay type: functional, cell-based;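 note: intracellular parasites grown in NIH/3T3 mouse fibroblasts as host cells; luminescent beta-galactosidase reporter signal from transgenic T. cruzi replicating inside host cells; inhibitors lower the luminescence signal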
[4] = cytotoxicity toward NIH3T3 fibroblasts, dose response, counter-screen, cell-based, ATP luminescence, mouse fibroblasts (AID 2010); assay type: functional;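 note: cells exposed to compound for about 90 hours before reading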
[5] = inhibitors of HIV Env-driven cell fusion, dose response, cherry-pick (AID 652057); assay type: functional, cell-based
[6] = CEM21 lymphoblast cell cytotoxicity, dose response, cytotoxicity control for viral fusion inhibitor project, CellTiter-Glo luminescence, cherry-picked (AID 652042); assay type: functional, cell-based;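 note: potency for signal decrease meaning cytotoxicity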
[7] = biological target: T1, Heat shock factor protein 1 (Mus musculus, UniProt P38532); test: HSF1 potentiators in luciferase reporter cells, confirmation, cell-based, NIH3T3, luminescence, dose retest (AID 435004); assay type: functional;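 note: stress induced by proteasome inhibitor MG132 added 30 min after compound; luciferase reporter driven by HSF1 response element in NIH3T3 cells; actives raise luminescence as potentiators of the MG132 stress response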
T1 sequence (P38532 whole entry): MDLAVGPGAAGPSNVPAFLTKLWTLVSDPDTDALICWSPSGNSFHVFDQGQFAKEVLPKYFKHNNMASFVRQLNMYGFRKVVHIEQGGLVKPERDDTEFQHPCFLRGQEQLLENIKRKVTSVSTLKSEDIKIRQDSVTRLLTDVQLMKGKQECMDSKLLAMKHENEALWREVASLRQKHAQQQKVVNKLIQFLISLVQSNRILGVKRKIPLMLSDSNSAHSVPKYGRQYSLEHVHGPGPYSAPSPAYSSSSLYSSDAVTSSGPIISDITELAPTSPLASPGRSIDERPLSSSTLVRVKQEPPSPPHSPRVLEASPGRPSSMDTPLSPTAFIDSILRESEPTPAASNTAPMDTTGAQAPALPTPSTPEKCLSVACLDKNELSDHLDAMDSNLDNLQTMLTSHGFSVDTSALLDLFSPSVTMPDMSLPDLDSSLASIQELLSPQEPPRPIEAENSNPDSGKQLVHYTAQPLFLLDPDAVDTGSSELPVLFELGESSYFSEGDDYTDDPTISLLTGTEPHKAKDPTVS

[8] = inhibitors of clade B AD8 Env fusion, dose response, cell-based, cherry-pick (AID 652062); assay type: functional;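 note: luciferase signal from cell-cell fusion driven by HIV-1 clade B AD8 Env; potency is for inhibitors of fusion seen as a drop in luminescence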
[9] = cytotoxicity toward DRD oncogenic fibroblasts, dose response, cell-based, non-viral oncogenic, luminescence (AID 1934); assay type: functional; conditions: Homo sapiens
[10] = tested on: BJ; test: cytotoxicity toward BJ-TERT fibroblasts, dose response, cell-based, RAS-independent, luminescence (AID 1933); assay type: functional; conditions: Homo sapiens
[11] = tested on: BJ; test: cytotoxicity toward BJ-TERT-LT-ST fibroblasts, dose response, cell-based, RAS-independent, luminescence (AID 1935); assay type: functional; conditions: Homo sapiens;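 note: BJ fibroblasts immortalized with TERT plus LT and ST oncogenes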
[12] = biological target: Cytochrome P450 2C9 (Homo sapiens, UniProt P11712)
[13] = tested on: BJ; test: cells; assay type: functional, cell-based; conditions: Homo sapiens
[14] = biological target: T2, Cytochrome P450 1A2 (Homo sapiens, UniProt P05177);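 note: PubChem cytochrome P450 panel assay, CYP1A2 panel member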
T2 sequence (P05177 whole entry): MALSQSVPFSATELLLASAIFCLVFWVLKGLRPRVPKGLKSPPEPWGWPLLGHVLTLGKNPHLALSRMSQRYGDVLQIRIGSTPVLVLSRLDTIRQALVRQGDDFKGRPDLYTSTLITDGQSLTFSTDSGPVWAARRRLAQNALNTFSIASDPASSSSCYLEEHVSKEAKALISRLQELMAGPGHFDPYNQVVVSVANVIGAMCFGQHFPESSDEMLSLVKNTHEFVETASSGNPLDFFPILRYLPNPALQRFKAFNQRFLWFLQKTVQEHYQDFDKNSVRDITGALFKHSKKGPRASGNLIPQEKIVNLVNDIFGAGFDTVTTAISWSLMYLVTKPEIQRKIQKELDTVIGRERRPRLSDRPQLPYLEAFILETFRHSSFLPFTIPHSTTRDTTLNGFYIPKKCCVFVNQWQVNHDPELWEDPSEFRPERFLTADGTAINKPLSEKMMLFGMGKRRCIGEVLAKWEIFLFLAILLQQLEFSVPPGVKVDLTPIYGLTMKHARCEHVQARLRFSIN

[15] = biological target: Cytochrome P450 2D6 (Homo sapiens, UniProt P10635);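 note: CYP2D6 member of a cytochrome P450 panel assay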
[16] = biological target: T3, Corticotropin-releasing factor receptor 2/Corticotropin-releasing factor-binding protein (Homo sapiens, UniProt P24387+Q13324); test: Dose Response confirmation of uHTS hits for small molecule antagonists of the CRF-binding protein and CRF-R2 receptor complex.; assay type: functional; conditions: read-out: IC50_Mean
T3 sequence (Q13324 whole entry): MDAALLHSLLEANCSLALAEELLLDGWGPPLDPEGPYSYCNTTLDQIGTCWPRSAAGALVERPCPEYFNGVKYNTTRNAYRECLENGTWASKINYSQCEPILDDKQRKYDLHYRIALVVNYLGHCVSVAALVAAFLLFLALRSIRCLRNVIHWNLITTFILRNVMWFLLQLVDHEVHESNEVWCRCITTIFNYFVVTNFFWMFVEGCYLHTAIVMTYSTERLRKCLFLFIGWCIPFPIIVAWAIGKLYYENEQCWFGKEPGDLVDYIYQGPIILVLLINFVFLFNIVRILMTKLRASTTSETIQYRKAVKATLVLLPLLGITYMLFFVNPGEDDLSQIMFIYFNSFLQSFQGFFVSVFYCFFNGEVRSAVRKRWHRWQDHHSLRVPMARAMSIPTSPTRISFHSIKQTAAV
T3 sequence (P24387 whole entry): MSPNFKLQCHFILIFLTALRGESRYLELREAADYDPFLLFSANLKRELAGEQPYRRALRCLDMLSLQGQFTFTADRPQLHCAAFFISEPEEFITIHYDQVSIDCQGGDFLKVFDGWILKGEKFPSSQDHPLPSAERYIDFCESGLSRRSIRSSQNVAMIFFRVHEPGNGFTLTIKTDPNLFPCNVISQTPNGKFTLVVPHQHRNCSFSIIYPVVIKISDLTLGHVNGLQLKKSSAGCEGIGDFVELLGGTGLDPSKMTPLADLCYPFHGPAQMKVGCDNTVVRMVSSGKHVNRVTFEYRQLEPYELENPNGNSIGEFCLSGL

[17] = CRF-BP/CRF-R2 complex antagonists, dose response, cell-based, uHTS hits, 384-well (AID 651639); assay type: functional, Homo sapiens; conditions: read-out: IC50_Mean
[18] = biological target: T3, Corticotropin-releasing factor receptor 2/Corticotropin-releasing factor-binding protein; test: activators of CRF receptor 2 with binding protein – uHTS hits, confirmation (AID 602473); assay type: functional; conditions: read-out: EC50_Mean
[19] = biological target: Cytochrome P450 2C19 (Homo sapiens, UniProt P33261); test: Cytochrome panel assay with activity outcomes. Panel member name: p450-cyp2c19 Compounds with AC50 equal or less than 10 uM are considered active; assay type: functional
[20] = biological target: Cytochrome P450 3A4 (Homo sapiens, UniProt P08684);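 note: CYP3A4 tested as one member of a cytochrome P450 panel screen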
[21] = biological target: Heat shock protein HSP 90-alpha (Homo sapiens, UniProt P07900); assay type: functional, organism-based
[22] = Luminescence Cell-Based Dose Retest to Confirm Inhibitors of Cancer Stem Cells. [Related pubchem assays (depositor defined):AID2717, AID2721]; assay type: functional; conditions: Homo sapiens
[23] = Luminescence Cell-Based Dose Confirmation HTS to Identify Inhibitors of Platelet Dense Granule Release. [Related pubchem assays: 1663 (Primary HTS), 1678 (Summary of Project)]; assay type: functional
[24] = biological target: Luciferin 4-monooxygenase (Photinus pyralis, UniProt P08659); test: firefly luciferase enzyme inhibitors, dose response, biochemical, luminescence (AID 1891)
[25] = non-specific cell cytotoxicity, dose response, cytotoxicity control for PAX8 inhibitor project, plate reader, dry powder samples (AID 743021); assay type: functional, cell-based
[26] = biological target: Paired box protein Pax-8 (Homo sapiens, UniProt Q06710); test: inhibitors of PAX8-driven TPO luciferase reporter, dose response, RMG-I cells, cherry-pick (AID 687027); assay type: functional, cell-based;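 note: luciferase reporter driven by Pax8 target thyroperoxidase promoter measured by SteadyGlo luminescence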
[27] = biological target: T4, Microphthalmia-associated transcription factor (Homo sapiens, UniProt O75030); test: TRPM1 promoter luciferase signal decrease, dose response, MITF inhibitor project, cell-based, SK-MEL-5, cherry-picked, set 3 (AID 493073); assay type: functional
T4 sequence (O75030 whole entry): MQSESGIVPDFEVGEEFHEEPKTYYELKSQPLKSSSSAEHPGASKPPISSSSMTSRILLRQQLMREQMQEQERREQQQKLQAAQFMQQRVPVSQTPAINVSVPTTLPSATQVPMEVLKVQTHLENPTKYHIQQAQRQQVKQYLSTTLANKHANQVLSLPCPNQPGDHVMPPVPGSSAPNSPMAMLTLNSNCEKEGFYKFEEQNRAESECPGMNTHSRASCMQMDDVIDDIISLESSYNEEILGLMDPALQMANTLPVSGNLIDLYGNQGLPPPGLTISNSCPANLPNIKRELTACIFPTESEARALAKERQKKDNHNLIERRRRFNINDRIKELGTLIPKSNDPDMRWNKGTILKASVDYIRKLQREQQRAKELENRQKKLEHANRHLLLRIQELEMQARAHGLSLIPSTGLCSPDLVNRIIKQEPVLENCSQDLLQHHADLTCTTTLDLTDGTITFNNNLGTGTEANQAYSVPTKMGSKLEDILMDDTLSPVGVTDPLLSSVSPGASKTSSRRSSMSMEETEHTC

Sequence of Cytochrome P450 2C9 (P11712 whole entry): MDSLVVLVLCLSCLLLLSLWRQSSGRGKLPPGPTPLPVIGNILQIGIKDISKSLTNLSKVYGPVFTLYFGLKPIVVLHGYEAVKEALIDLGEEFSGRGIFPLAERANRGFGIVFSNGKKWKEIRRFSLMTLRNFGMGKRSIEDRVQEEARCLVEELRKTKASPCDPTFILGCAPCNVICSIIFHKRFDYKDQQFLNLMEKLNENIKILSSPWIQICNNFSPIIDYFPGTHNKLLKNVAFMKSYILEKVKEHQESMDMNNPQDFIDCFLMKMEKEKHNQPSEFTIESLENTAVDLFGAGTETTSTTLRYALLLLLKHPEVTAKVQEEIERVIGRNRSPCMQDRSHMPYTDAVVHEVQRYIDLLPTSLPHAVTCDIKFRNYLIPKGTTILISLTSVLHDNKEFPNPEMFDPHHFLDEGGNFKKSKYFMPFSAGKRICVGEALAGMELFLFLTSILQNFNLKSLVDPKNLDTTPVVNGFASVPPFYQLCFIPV
Sequence of Cytochrome P450 2C19 (P33261 whole entry): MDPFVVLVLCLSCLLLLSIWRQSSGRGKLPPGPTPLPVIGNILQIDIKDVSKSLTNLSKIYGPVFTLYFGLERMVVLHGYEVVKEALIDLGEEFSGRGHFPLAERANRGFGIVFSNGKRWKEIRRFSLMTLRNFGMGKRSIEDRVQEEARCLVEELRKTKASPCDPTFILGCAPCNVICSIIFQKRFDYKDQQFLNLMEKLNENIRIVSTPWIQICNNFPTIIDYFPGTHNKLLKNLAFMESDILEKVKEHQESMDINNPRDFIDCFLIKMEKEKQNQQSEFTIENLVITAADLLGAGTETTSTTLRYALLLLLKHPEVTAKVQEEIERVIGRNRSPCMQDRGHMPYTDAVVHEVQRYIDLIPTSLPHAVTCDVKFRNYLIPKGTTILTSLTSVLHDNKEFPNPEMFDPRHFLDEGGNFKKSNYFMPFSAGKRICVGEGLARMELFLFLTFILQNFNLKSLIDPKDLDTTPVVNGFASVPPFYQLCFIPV
Sequence of Cytochrome P450 2D6 (P10635 whole entry): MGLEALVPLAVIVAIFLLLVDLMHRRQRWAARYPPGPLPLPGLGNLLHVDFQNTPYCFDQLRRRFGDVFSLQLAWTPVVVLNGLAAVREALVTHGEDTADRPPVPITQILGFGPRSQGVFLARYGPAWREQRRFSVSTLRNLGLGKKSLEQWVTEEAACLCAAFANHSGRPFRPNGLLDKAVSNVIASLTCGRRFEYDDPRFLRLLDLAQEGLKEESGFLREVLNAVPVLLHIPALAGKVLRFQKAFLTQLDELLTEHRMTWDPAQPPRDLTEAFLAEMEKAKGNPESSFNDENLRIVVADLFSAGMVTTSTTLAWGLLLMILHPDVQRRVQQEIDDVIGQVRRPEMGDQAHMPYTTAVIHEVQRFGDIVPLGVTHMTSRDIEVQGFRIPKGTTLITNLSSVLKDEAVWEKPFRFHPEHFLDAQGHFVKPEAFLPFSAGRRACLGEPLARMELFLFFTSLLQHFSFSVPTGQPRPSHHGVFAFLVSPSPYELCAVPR
Sequence of Paired box protein Pax-8 (Q06710 whole entry): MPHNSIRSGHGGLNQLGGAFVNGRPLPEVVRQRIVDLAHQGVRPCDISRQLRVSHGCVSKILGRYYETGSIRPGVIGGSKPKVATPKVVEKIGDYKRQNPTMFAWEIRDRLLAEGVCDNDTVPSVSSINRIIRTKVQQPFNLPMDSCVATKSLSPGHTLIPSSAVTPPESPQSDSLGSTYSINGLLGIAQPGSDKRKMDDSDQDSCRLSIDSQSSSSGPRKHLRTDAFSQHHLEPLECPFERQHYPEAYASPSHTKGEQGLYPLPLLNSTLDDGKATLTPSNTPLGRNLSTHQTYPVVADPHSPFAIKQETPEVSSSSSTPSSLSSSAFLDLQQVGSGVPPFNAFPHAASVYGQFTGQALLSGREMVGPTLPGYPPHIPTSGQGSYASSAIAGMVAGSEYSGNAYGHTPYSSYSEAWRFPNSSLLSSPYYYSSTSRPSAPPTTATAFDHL
Sequence of Cytochrome P450 3A4 (P08684 whole entry): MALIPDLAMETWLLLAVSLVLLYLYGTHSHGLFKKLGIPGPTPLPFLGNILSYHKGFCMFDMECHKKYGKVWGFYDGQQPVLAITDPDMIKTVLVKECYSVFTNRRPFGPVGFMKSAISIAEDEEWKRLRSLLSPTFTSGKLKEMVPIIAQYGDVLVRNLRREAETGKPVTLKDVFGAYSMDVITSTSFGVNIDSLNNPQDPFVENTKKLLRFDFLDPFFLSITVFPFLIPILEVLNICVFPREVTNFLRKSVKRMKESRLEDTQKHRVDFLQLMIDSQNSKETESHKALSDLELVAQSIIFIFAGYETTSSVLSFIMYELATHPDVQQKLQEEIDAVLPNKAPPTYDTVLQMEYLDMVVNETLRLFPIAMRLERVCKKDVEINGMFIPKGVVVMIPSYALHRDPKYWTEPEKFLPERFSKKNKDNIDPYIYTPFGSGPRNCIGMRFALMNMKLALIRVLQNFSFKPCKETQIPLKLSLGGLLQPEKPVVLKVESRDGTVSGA
Sequence of Luciferin 4-monooxygenase (P08659 whole entry): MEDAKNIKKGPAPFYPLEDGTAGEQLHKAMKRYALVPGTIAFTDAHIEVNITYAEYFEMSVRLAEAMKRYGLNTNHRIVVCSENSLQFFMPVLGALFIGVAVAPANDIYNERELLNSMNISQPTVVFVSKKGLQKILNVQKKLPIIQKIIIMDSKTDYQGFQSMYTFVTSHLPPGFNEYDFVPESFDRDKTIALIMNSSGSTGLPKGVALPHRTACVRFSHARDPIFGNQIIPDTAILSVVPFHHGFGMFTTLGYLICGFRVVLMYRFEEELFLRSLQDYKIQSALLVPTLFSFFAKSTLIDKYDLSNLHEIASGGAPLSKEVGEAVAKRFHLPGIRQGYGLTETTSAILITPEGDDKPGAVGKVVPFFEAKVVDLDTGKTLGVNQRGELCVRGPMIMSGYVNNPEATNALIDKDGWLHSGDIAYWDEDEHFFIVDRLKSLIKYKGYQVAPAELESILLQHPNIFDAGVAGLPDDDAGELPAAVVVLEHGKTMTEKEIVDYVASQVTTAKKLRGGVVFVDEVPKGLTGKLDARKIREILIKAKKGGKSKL

SMILES: Cc1ccc(C(C(=O)NC2CCCCC2)N(C(=O)Cc2c[nH]c3ccccc23)c2ccccc2)o1 (stereo unspecified)
AC50 [1]: 10.3 µM (active)
AC50 [2]: 2.63 µM (active)
EC50 [3]: 1.6 µM (active)
EC50 [4]: > 60 µM (not active)
AC50 [5]: 4.14 µM (active)
AC50 [6]: 47.4 µM (active)
EC50 [7]: > 260 µM (inactive)
AC50 [8]: 6.79 µM (active)

SMILES: O=C(CCl)Nc1ccc(Oc2cnc3ccccc3n2)cc1
EC50 [9]: 16.9 µM (active)
EC50 [10]: 6.36 µM (active)
EC50 [11]: > 75 µM (inconclusive)
AC50 [12]: inconclusive
EC50 [13]: > 150 µM (not active)
AC50 [14]: 8.91 µM (inconclusive)

SMILES: C[C@H](CO)N1C[C@H](C)[C@H](CN(C)Cc2ccc(F)cc2)OCc2ccccc2-c2ccccc2C1=O
AC50 [2]: 1.39 µM (active)
AC50 [5]: 0.557 µM (active)
AC50 [8]: 3.77 µM (active)

SMILES: O=C(Cc1ccccc1)N[C@@H]1C=C[C@H](CC(=O)N2CCCCC2)O[C@@H]1CO
AC50 [2]: 28.7 µM (active)

SMILES: CCc1ccc(-c2cc(C(=O)N3N=C(C(F)F)CC3(O)C(F)F)c3ccccc3n2)cc1 (stereo unspecified)
AC50 [21]: 4.04 µM (active)
AC50 [22]: 5.74 µM (active)
EC50 [3]: 2.9 µM (active)
EC50 [4]: > 60 µM (not active)

SMILES: O=C(NC(=O)c1ccccc1)Nc1ccccn1
AC50 [1]: 9.35 µM (active)
EC50 [23]: 2.1 µM (active)
AC50 [2]: 37.7 µM (active)
AC50 [5]: 2.44 µM (active)
AC50 [6]: 39.1 µM (active)
EC50 [24]: 4.17 µM (active)
AC50 [8]: 6.09 µM (active)

SMILES: Cc1nc2ccccc2n1CC(=O)NCc1ccccc1
AC50 [1]: > 70 µM (inactive)
AC50 [8]: 16.8 µM (active)

SMILES: COC(=O)C1=C(SC)N(c2ccccc2)C(c2ccccc2)CC1=O (stereo unspecified)
AC50 [25]: 62 µM (active)
AC50 [26]: 54.1 µM (active)

SMILES: Cc1ccc2c(C(=O)CCl)c(C)[nH]c2c1
AC50 [27]: 8.17 µM (active)
EC50 [3]: 3.94 µM (active)
EC50 [4]: 11.3 µM (active)

Further lines, results first:

AC50 [15]: 15.8 µM (inconclusive)
AC50 [12]: inconclusive
SMILES: C=CCNc1nc(SCC=C)nc2ccsc12

IC50 [16]: 3.26 µM (active)
IC50 [17]: > 20 µM (inactive)
EC50 [18]: > 53 µM (inactive)
SMILES: CCN(CC)S(=O)(=O)c1ccc(Cl)c(NC(=O)c2cc(Cl)cc(Cl)c2)c1

IC50 [16]: 5.83 µM (active)
IC50 [17]: > 20 µM (inactive)
EC50 [18]: > 53 µM (inactive)
SMILES: CC(=O)N(C(C)=O)c1cccc(N(Cc2ccccc2)Cc2ccccc2)c1

IC50 [16]: 12 µM (active)
IC50 [17]: 14.5 µM (active)
EC50 [18]: > 53 µM (inactive)
SMILES: COc1ccc([N+](=O)[O-])cc1NCc1ccccc1

AC50 [15]: 31.6 µM (inconclusive)
AC50 [12]: inconclusive
AC50 ([19]; read-out: AC50): 7.94 µM (inconclusive)
SMILES: CCOc1ccc(S(=O)(=O)NCc2ccc(F)cc2)c2cccnc12

AC50 [20]: 15.8 µM (inconclusive)
AC50 [12]: inconclusive
AC50 [19]: inconclusive
SMILES: C/C(Cl)=C\Cn1c(N2CCCC2)nc2c1c(=O)[nH]c(=O)n2C

AC50 [12]: inconclusive
SMILES: CC1CCN(C(=O)C2CCN(S(=O)(=O)c3cccc4nonc34)CC2)CC1

AC50 [27]: 4.3 µM (active)
AC50 [26]: 6.29 µM (active)
SMILES: COc1ccccc1NS(=O)(=O)c1cccc(C(=O)N/N=C/c2ccc([N+](=O)[O-])o2)c1

AC50 [12]: inconclusive
AC50 ([19]; read-out: AC50): 8.91 µM (inconclusive)
SMILES: Cc1nc(-c2cccnc2)sc1C(=O)Nc1ccc(F)cc1F

IC50 [16]: < 0.368 µM (active)
IC50 [17]: > 20 µM (inactive)
EC50 [18]: > 53 µM (inactive)
SMILES: COc1cccc2ccc(CC(O)(c3ccccc3)c3ccccc3)nc12
